Experimental data published in patent publication US20260207637A1, “MODULATOR FOR PROMOTING BINDING OF BUTYROPHILIN 3A1/2A1” (priority 2023, published 2026).
Where two headings read alike, the source gives them in different places.

What was measured:
MIApaca/FG2 cells = assay: EC50 assay of small molecule activated γδ T cells to kill MIApaca/FG2 tumor cells (10-fold dilution protocol); format: cell-based
Description: γδT cells and MIApaca/FG2 tumor cell lines were expanded and cultured in vitro. The MIApaca/FG2 cells were digested, and the cells were counted and resuspended in DMEM complete medium, the density of the cell suspension was adjusted and added into a 96-well plate at 5×10^3 cells/50 μL/well for overnight incubation. On the next day, the test compound and the control compound were diluted at a 10-fold ratio with γδT complete medium. 50 μL of diluted compound was transferred to the corresponding wells which had been plated with tumor cells, and the actual detection concentration was in the range of 10^−12-10^−5 M. γδT cells were resuspended in γδT complete medium, and the density of the cell suspension was adjusted according to the effector-target ratio of E:T=2:1, and then the cells were added to the corresponding wells at 1×10^4 cells/50 μL/well. After co-culture at 37° C., 5% CO2 for 20 hours, the cells were centrifuged. The supernatant was removed, and 50 μL of cell lysate containing luciferin substrate was added to each well. After standing for 18 minutes in the dark, the signal of chemiluminescence was detected. The EC50 value was calculated by four-parameter fitting, with the corresponding signal value of the well with only tumor cells as the minimum killing value, and the corresponding signal value of the well without tumor cells as the maximum killing value. The killing data of MIApaca/FG2 cells is as follows: […]

[1] = Pharmacokinetic test in cynomolgus monkeys; format: in vivo; conditions: IV 2 mg/kg
Description: The control compound 2 and compound 19 were formulated into 1 mg/mL solution in 10% DMSO/90% PBS. Cynomolgus monkeys were obtained from Suzhou Leo Bio Technology Co., Ltd. The control compound 2 and compound 19 were administered intravenously at 2 mg/kg, respectively. The blood collected before administration was recorded as zero point. Then 1 mL of blood was collected at eight time points: 0.083, 0.15, 0.5, 1.0 2.0, 4.0, 8.0, and 24.0, respectively. 1 mL of the collected whole blood was placed in a labeled EDTA-2K anticoagulant tube. After gently inverting up and down to fully mix the anticoagulant (EDTA-2K) with the blood, it was immediately placed in wet ice and centrifuged within 30 minutes to separate the plasma. The centrifugation conditions were set to 4° C., 2200 g, and 6 min. The plasma separated after centrifugation was placed in a labeled EP tube, and the content of compound 19 and control compound 2 in the plasma samples at different time points were detected and analyzed. There were 3 male cynomolgus monkeys in each group.

[2] = Binding rate test of compounds and human plasma protein (equilibrium dialysis); format: in vitro ADME; conditions: human plasma, equilibrium dialysis 6 hours, 37° C.
Description: (1) The dry dialysis membrane was soaked with ultrapure water for 20 min or more than 20 min, then soaked with 20% ethanol for 30 min to 1 h, and the membrane was rinsed with ultrapure water 2-3 times. Finally, the membrane was soaked with ultrapure water for 20 minutes for later use.
(2) The frozen plasma was thawed in a water bath at 37° C.
(3) The test compound was diluted into plasma preheated to 37° C. at a final concentration of 1 μM, and the final concentration of the control compound warfarin in plasma was 2 μM.
(4) The pre-treated dialysis membrane was assembled into the dialysis plate according to the specification of the product, and 120 μL of the receiving solution (100 mM phosphate buffer solution added 0.002% Tween 80) was added to one side of the permeable membrane in each dialysis well.
(5) 20 μL of each of the final solutions of the test compound and the control compound were added into a 96-well sample plate in duplicate, and the TO sample was obtained, which was stored in a refrigerator at −20° C. Another 20 μL of the above final solution was added to the other side of the membrane in the dialysis device in duplicate, and incubated at 37° C. by shaking at constant temperature for 6 hours.
(6) After 6 hours of incubation, 20 L of each of the dialyzed receiving solution and the administered plasma were weighed to obtain sample B and sample A in duplicate. The corresponding volume of corresponding blank plasma or receiving solution was added to sample B and sample A, respectively, so that the volume ratio of plasma to buffer in each sample well was 1:1. 300 μL of acetonitrile solution containing internal standard was added to all sample wells, and centrifuged after mixed uniformly.
(7) 200 μL of ultrapure water (150 μL for the control group) was added into the corresponding sample wells of the 96-well sample plate, and 300 μL of the supernatant (150 μL for the control group) was added into the sample well; the samples were analyzed after mixed uniformly. The free percentage and recovery rate of the compound in plasma were calculated using the following formula: Plasma protein binding rate (%)=1−free percentage, wherein free percentage (%)=CB/CA
wherein CB is the concentration of the compound in the receiving solution after equilibrium dialysis, CA is the concentration of the compound in the drug-dosed plasma after equilibrium dialysis, and CT0 is the initial concentration of the compound in plasma.

[3] = Stability experiment of compounds in human whole blood; format: in vitro ADME; conditions: whole blood (sodium heparin), 37° C., 0-4 h, read-out: T1/2 in human whole blood (converted)
Description: • (1) An appropriate amount of blank whole blood was added into an EP tube containing sodium heparin, then added the working solution of the test substance to a final concentration of 1 μM, and mixed by vortex; • (2) The sample was placed in a water bath at 37° C. with two parallel experiments; for one experiment, the time points were 0 h, 0.5 h, 1 h, 2 h, and 4 h; another experiment was performed to obtain the absolute zero point, which was compared with the 0 h point. • (3) An appropriate amount of sample was taken out from the incubation system, to which 300 μL of internal standard precipitant was added for protein precipitation; (4) all samples were centrifuged at 6° C. for 10 min (15700×g). • (5) 150 μL of the supernatant was taken out, to which 150 μL of water was added, which was mixed by vortex, and analyzed by LC-MS/MS. The stability data of compounds in human whole blood is as follows: […]

[4] = Stability experiment of compounds in human liver microsomes; format: in vitro ADME; conditions: NADPH, 37° C., read-out: T1/2 in human liver microsomes
Description: Compounds were prepared as a 10 mM stock solution with DMSO and then diluted with 80% acetonitrile-water to a 100 μM working solution for later use. Human liver microsomes were obtained from BIOIVT.
(1) The liver microsomes taken out from the refrigerator were placed in a 37° C. water bath thermostatic oscillator, pre-incubated for 5 min, and thawed for later use.
(2) A certain amount of NADPH was weighed and added to an appropriate amount of magnesium chloride solution to dissolve into a 2 mM solution for later use.
(3) A mixed solution of the warm incubation system (containing no β-NADPH) was prepared according to the proportions in the “composition of the experimental warm incubation system” above and dispensed at 165 μL/tubes (45 μL/tube for the negative control group and 120 μL/tube for the positive control group).
(4) For the sample at 0 min: 200 μL of internal standard working precipitant was added and then 30 μL of NADPH solution was added.
(5) For other samples: 135 μL NADPH solution was added to initiate the reaction (45 μL magnesium chloride solution was added for the negative control group), and incubated in a 37° C. water bath for 5, 15, 30, and 60 min (incubated in a 37° C. water bath for 60 min for the negative control group), then 60 μL was sampled and added to 200 µL of precipitant containing internal standard.
(6) For the positive control group: 90 L NADPH solution was added to initiate the reaction, and incubated in a 37° C. water bath for 5, 15 min, then 60 μL was sampled and added to 200 μL of precipitant containing internal standard.
(7) For neat sample: 297 μL of water was pipetted into a tube, 1000 μL of internal standard working solution was added, and 3 μL of test compound working solution was added.
(8) All samples were vortexed and centrifuged.
(9) 150 μL of the supernatant was sampled and added to 150 μL of water, mixed uniformly by vortex, and analyzed by LC-MS/MS. The half-life stability data of human liver microsomes is as follows: […]

[5] = Homo sapiens, MIA PaCa-2, γδT cells + MIApaca/FG2, E:T=2:1, co-culture 20 hours, 10^-12-10^-5 M, read-out: MIApaca killing (EC50)
[6] = read-out: MIApaca killing (EC50), γδT cells + MIApaca/FG2, E:T=2:1, co-culture 20 hours, 10^-12-10^-5 M

| SMILES | EC50 (MIApaca/FG2 cells; [5]) [nM] | EC50 (MIApaca/FG2 cells; [6]) [nM] | other results |
| --- | --- | --- | --- |
| C/C(=C\COP(=O)(O)OP(=O)(O)O)CO [HMBPP control, reference compound] | – | – | EC50 (MIApaca/FG2 cells; γδT cells + MIApaca/FG2, E:T=2:1, co-culture 20 hours, 10^-12-10^-5 M, read-out: MIApaca killing (EC50)): 2.1 nM |
| CC(C)OC(=O)[C@H](C)NP(=O)(OC/C=C(/CO)C(F)(F)F)Oc1cccc2ccccc12 (stereo partly drawn) [Compound 14, isopropyl ((naphthyloxy)(((Z)-4,4,4-trifluoro-3-(hydroxymethyl)but-2-en-1-yl)oxy)phosphoryl)-L-alaninate] | 67 | – | – |
| C/C(=C\CCP(=O)(N[C@@H](C)C(=O)OCc1ccccc1)Oc1ccccc1)CO (some centres unmarked) [Control compound 2, reference compound] | – | – | AUC0-t/AUC0-inf ([1]; average): 0.974; concentration at 5 min ([1]; male, cynomolgus monkey, plasma, 5 min, read-out: Plasma concentration of the unchanged drug): 299 ng/mL; concentration at 9 min ([1]; male, cynomolgus monkey, plasma, 9 min, read-out: Plasma concentration of the unchanged drug): 49 ng/mL; concentration at 30 min ([1]; male, cynomolgus monkey, plasma, 30 min, read-out: Plasma concentration of the unchanged drug): 1 ng/mL; concentration at 1 h ([1]; male, cynomolgus monkey, plasma, 1 h, read-out: Plasma concentration of the unchanged drug): 3 ng/mL; AUC(0-t) ([1]; male, cynomolgus monkey, plasma, average, read-out: AUC0-t (AUClast)): 194 ng·h/mL; clearance ([1]; male, cynomolgus monkey, plasma, average, read-out: Cl (Cl_obs)): 418 mL/min/kg; fraction unbound at 6 h, 1 μM [2]: 0.027; half-life at 1 μM [3]: 2 h; half-life [4]: 1.4 min |
| C[C@H](NP(=O)(OC/C=C(/CO)C(F)(F)F)Oc1ccccc1)C(=O)O[C@@H]1CCOC1 (some centres unmarked) [Compound 13] | 6.6 | – | – |
| C[C@H](NP(=O)(OC/C=C(/CO)C(F)(F)F)Oc1ccccc1)C(=O)O[C@H]1CCOC1 (stereo partly drawn) [Compound 12, (S)-tetrahydrofuran-3-yl ((phenoxy)(((Z)-4,4,4-trifluoro-3-(hydroxymethyl)but-2-en-1-yl)oxy)phosphoryl)-L-alaninate] | 5.1 | – | – |
| CC(C)OC(=O)[C@H](C)NP(=O)(CCC=C(CO)CO)Oc1ccccc1 (stereo partly drawn) [Compound 1, Isopropyl ((5-hydroxy-4-(hydroxymethyl)pent-3-en-1-yl)(phenoxy)phosphoryl)-L-alaninate] | – | 57.1 | – |
| CCC(CC)COC(=O)[C@H](C)NP(=O)(CC/C=C(\C)CO)Oc1ccccc1 (stereo partly drawn) [Compound 2, 2-Ethylbutyl (((E)-5-hydroxy-4-methylpent-3-en-1-yl)(phenoxy)phosphoryl)-L-alaninate] | – | 0.19 | – |
| C/C(=C\CCP(=O)(N[C@@H](C)C(=O)OC1CCCC1)Oc1ccccc1)CO (stereo partly drawn) [Compound 6, Cyclopentyl (((E)-5-hydroxy-4-methylpent-3-en-1-yl)(phenoxy)phosphoryl)-L-alaninate] | – | 0.098 | – |
| CC(C)OC(=O)[C@H](C)NP(=O)(OC/C=C(/CO)C(F)(F)F)Oc1ccccc1 (stereo partly drawn) [Compound 3, Isopropyl ((phenoxy)(((Z)-4,4,4-trifluoro-3-(hydroxymethyl)but-2-en-1-yl)oxy)phosphoryl)-L-alaninate] | 8 | – | – |
| CC/C(=C\CCP(=O)(N[C@@H](C)C(=O)OC(C)C)Oc1ccccc1)CO (stereo partly drawn) [Compound 4, Isopropyl (((E)-5-hydroxy-4-ethylpent-3-en-1-yl)(phenoxy)phosphoryl)-L-alaninate] | – | 174 | – |
| C[C@H](NP(=O)(OC/C=C(/CO)C(F)(F)F)Oc1ccccc1)C(=O)OC1CCCC1 (stereo partly drawn) [Compound 11, Cyclopentyl ((phenoxy)(((Z)-4,4,4-trifluoro-3-(hydroxymethyl)but-2-en-1-yl)oxy)phosphoryl)-L-alaninate] | 35.4 | – | – |
| C[C@H](NP(=O)(OC/C=C(/CO)C(F)(F)F)Oc1ccccc1)C(=O)OCC1CC1 (stereo partly drawn) [Compound 9, Cyclopropylmethyl ((phenoxy)(((Z)-4,4,4-trifluoro-3-(hydroxymethyl)but-2-en-1-yl)oxy)phosphoryl)-L-alaninate] | 9.9 | – | – |
| CC(C)OC(=O)[C@H](C)NP(=O)(CC/C=C/CO)Oc1ccccc1 (stereo partly drawn) [Compound 5, Isopropyl (((E)-5-hydroxypent-3-en-1-yl)(phenoxy)phosphoryl)-L-alaninate] | – | 11.6 | – |
| CCC(CC)COC(=O)[C@H](C)NP(=O)(OC/C=C(/CO)C(F)(F)F)Oc1ccccc1 (stereo partly drawn) [Compound 10, 2-Ethylbutyl ((phenoxy)(((Z)-4,4,4-trifluoro-3-(hydroxymethyl)but-2-en-1-yl)oxy)phosphoryl)-L-alaninate] | 12.8 | – | – |
